The record followed here is patent publication US5849801A, “4-amino-5-oxy-2,6,6-trimethyl-2-cycloheptene compounds” (Tokyo Tanabe Company Limited, priority 1995, dated 1998).

The test system of assay [1] is rat peripheral arterial occlusion models. Briefly: Effect on rat peripheral arterial occlusion models (5% lactic acid induced). The class given is in vivo, SD rats. The conditions noted are these: i.v., solvent physiological saline (printed once, above), lower leg lesions at 14 days. As to the method: Models were prepared following the method of Iwamoto et al. (Iwamoto, M. et al., Japanese Pharmacology & Therapeutics, Vol. 14, Suppl. 5, p. 41, 1986). Upon minimal dissection of the femoral regions of SD rats (6 per group) with a body weight of 250~350 g under Nembutal anesthesia, 0.1 ml of 5% lactic acid was administered intraarterially. The rats were raised for 14 days under normal conditions, and observed for lesions of the lower legs. The grading for the lesions was: "1" for nigrities only at the nail tips, "2" for nigrities up to the digits, "3" for necrosis of the digits, and "4" deciduation of the digits. Each of the digits of the lower legs on the side where lactic acid had been administered were graded, and the overall grade was determined as the index of lesions. The disorder inhibition rate was determined by dividing the index of lesions in the drug-administered group by the index of lesions of the control group. The drugs were dissolved in physiological saline or dimethylsulfoxide, and injected through the caudal vein 5 minutes prior to injection of the 5% lactic acid.

Assay [2] relates to calcium contraction of the thoracic aorta. The assay can be described thus: Effect on calcium contraction (in vitro), thoracic aorta specimens. On the set-up: species or system Male SD rats. The conditions noted are these: Rattus norvegicus; 1×10^-7 M in dimethylsulfoxide; 0.3 mM calcium chloride, 80 mM KCl buffer. The method, then:
This was investigated according to the method of Ishibashi, et al. (Ishibashi, A. et al., Folia Pharmacologica Japonica, Vol. 82, p. 361, 1983). Male SD rats of body weight approximately 300 g were used to prepare thoracic aorta extract specimens, which were suspended and immobilized in a organ bath containing 10 ml of Krebs-Henseleit buffer solution at 37° C. through which a mixed gas of oxygen (95%) and carbon dioxide (5%) had been passed. After equilibrating the specimens, they were equilibrated in a buffer solution without calcium chloride and then in an isotonic calcium-free 80 mM potassium chloride buffer solution replaced with potassium ions, and a resting tension of 0.2 g was applied. Contraction was induced by addition of 0.3 mM calcium chloride. The test compounds were added 10 minutes prior to addition of the calcium solution. The percent inhibition of the test compounds were calculated using the first contraction as the control (100% contraction). The test compounds were used for the test as solutions in dimethylsulfoxide at a 1×10^-7 M concentration.

Assay [3] deals with histamine-induced guinea pig bronchoconstriction. Briefly: Effect on histamine-induced guinea pig bronchoconstriction models. The class given is in vivo, male Hartley guinea pigs. The conditions noted are these: inhalation for 30 seconds, hydrochloride, histamine 3 μg/kg i.v. after 2 minutes. As to the method:
After urethane anesthetization of male Hartley guinea pigs (body weight: 350~450 g, 5 per group, Nihon Crea Co.), a small cannula was inserted into trachea. Next, gallamine triethiodide (1 mg/kg) was intravenously administered, and the tracheal cannula was connected to a constant volume respirator. The artificial respiration was conducted with an air volume per breath of 7~10 ml, a breath frequency of 60/min and a lung application pressure of 10 cm water. The volume of air overflowing from the legs on the cannula side was recorded on a polygraph (RM6100: product of Nihon Koden Co.) with a model 7020 bronchospasm transducer (product of Ugo Basile). Hydrochloride of the test compounds were dissolved in physiological saline, and inhalation was performed with reference to the method of Minami et al. […] The inhalation load apparatus was prepared by directly incorporating an ultrasonic nebulizer into an artificial respiration circuit (Omron ultrasonic aspirator NE-U11B, product of […] Electric Co.). The test compound (mg/0.5 ml) was administered by inhalation for 30 seconds, and after 2 minutes histamine (3 μg/kg) was intravenously administered and the air overflow volume was measured. The bronchoconstriction rate was calculated as a percentage with 100 being the height of contraction when the airway was completely constricted. The inhibition rate was calculated by dividing the contraction rate of the test compound group by the contraction rate of the control group.

Assay [4] deals with blood pressure of anesthetized rats. The assay can be described thus: Effect on blood pressure of anesthetized rats. The format is in vivo, Male SD rats. The note with it: Rattus norvegicus, intravenous, diastolic, urethane anesthesia, read-out: Reduction of blood pressure (%). As to the method:
Male SD rats (body weight: 250~350 g, product of Nihon Crea Co.) were placed under urethane anesthesia and then a sphygmomanometric pressure transducer was inserted into the left cervical artery and recording was made on a polygraph (RM6100, product of Nihon Koden Co.) using a strain pressure […], product of Nihon Koden Co.). The test compounds were dissolved in physiological saline and administered intravenously. The change in blood pressure was indicated as the reduction rate from the initial value of diastolic blood pressure just prior to administration of the test compound.

Assay [5] deals with platelet aggregation induced by arachidonic acid. The assay can be described thus: Inhibiting effect on platelet aggregation (in vitro), arachidonic acid as aggregating agent. The format is cell-based, Japanese white male house rabbits. The note with it: Oryctolagus cuniculus; arachidonic acid 68.6 μg/ml, 37° C., platelet suspension. The method, then:
Platelet rich plasma was prepared from Japanese white male house rabbits (body weight: 2.5~3.0 kg) following the method of Suzuki et al. (Suzuki, K. et al., The Clinical Report, Vol. 21, No. 13, p. 5263, 1987). The resulting platelet rich plasma solution was appropriately diluted with a Tris-Tyrode buffer solution (pH 7.4) to prepare a 4×10^5 platelet/μl platelet suspension to be used for the test. The platelet aggregation was measured using a platelet aggregometer (NBS Hematoracer 601, product of Nikoh Bioscience Co.). Specifically, 250 μl of the platelet suspension, 5 μl of a 96 mM calcium chloride solution and 5 μl of the test compound solution dissolved in methanol were added to a cuvette, and after incubating for one minute at 37° C., 20 μl of an aggregating agent was added and the maximum degree of aggregation occurring was determined. The aggregating agents used were platelet activating factor (PAF) (2.5 ng/ml) and arachidonic acid (68.6 μg/ml). The 50% inhibition concentration (IC50) was calculated from the results of measurement with various concentrations of each test compound.

Assay [6] deals with antigen-induced guinea pig bronchoconstriction. The assay can be described thus: Effect on antigen-induced guinea pig bronchoconstriction. The class given is in vivo, Male Hartley guinea pigs. The note with it: inhaled one minute before i.v. DNP-bovine serum albumin; observed 15 minutes; passively sensitized. The method, then:
Male Hartley guinea pigs (body weight: 300~450 g, Nihon Crea Co.) were intraperitonealy administered anti-DNP-Ascarls serum (1024-fold antibody titer) at 0.5 ml/kg. After 24 hours, under urethane anesthesia there were inserted a cannula into the trachea, a sphygmomanometric cannula into the left cervical artery and a drug injection cannula into the right jugular vein, and gallamine triethiodide (1.0 mg/0.5 ml/kg) was intravenously administered and connected to an artificial respirator (product of Ugo Basile). For the test, diphenhydramine (60 mg/ml/kg) was intraperitoneally administered, the compound of Example 16 was inhaled as the test compound after 14 minutes, and following intravenous administration of DNP-bovine serum albumin (1.0 mg protein/0.5 ml/kg) one minute after administration of the test compound, the degree of bronchoconstriction was observed over a period of 15 minutes. The bronchoconstriction rate was given as a percentage of the maximum air over flow volume obtained by clamping off the trachea. The test compounds were inhaled by nebulizing for 30 seconds with an ultrasonic nebulizer.

Structures are written as SMILES. Counter-ions that a name gives are not always drawn.

For the compound `CC1=CC(N2CCCCC2)C(O)C(C)(C)CC1=O` (stereo not shown) [Example 16, 5-hydroxy-4-piperidino-2,6,6-trinethyl-2-cyclohepten-1-one hydrochloride], the Inhibition rate stood at 65% in assay [1] (3 mg/kg) and 78% in assay [1] (30 mg/kg). For the same compound, the inhibition (usually how much of the control response was suppressed) at 0.1 µM in assay [2] amounted to 24%. Further, the Brochoconstriction inhibition rate in assay [3] (3.0 mg/0.5 ml) was 32%; in assay [3] (10.0 mg/0.5 ml), 46%. Besides, in assay [4] (1 mg/kg), the inhibition in vivo at 1 mg/kg came to 6%. Also, the inhibition in vivo at 3 mg/kg in assay [4] (3 mg/kg) is 16%. In addition, the inhibition in vivo at 10 mg/kg in assay [4] (10 mg/kg) worked out at 40%. Also, the concentration for half-maximal inhibition (IC50) – broadly, the concentration that inhibits the measured activity by half – in assay [5] came out at 100 µM. For the same compound, the “airway contraction / bronchoconstriction (FIG. 1)” value in assay [6] is “inhibited airway contract ion”.
